Experimental data published in patent US20090124672A1 (priority 2007, published 2009).

What was measured:
[1] = test system: Sprague-Dawley rats treated with DMCM; experiment: Social interaction test, DMCM-induced anxiety; format: in vivo, rat; conditions: 0.5 mg/kg DMCM
From the text: (§1) Experienced observers blinded to the experimental conditions carried out the social interaction test in a square open field (60 cm by 60 cm, with 16 15×15 cm squares marked out on the floor). Pairs of rats receiving the same treatment were placed in the arena and the onset of social interactions recorded. This procedure has been validated by previous studies (Overstreet et al. (2002); Overstreet et al. (2003)). Rats were unfamiliar with the open field and lighting conditions were low in order to generate an intermediate level of anxiety-related behavior. Rat pairs matched according to weight and treatment were placed simultaneously in the open field. During the 5-min session, line crosses (by two forepaws) and time spent in social interaction (grooming, sniffing, following) were scored individually for each rat (Kampov-Polevoy et al., 2000; Overstreet et al., 2002, 2003).
(§2) Fifteen min later the rats received a second injection of 0.5 mg/kg DMCM (methyl 6,7-demethoxy-4-ethyl-β-carboline-3-carboxylate) or vehicle (acidified saline). The rats were placed in the open field arena 15 min after the second injection for recording social interaction and locomotor activity for 5-min. Approximately one week later the rats were treated with Compound A (3.75, 7.5 or 15 mg/kg). The 5-HT2C agonist mCPP (m-chlorophenylpiperazine; 0.5 mg/kg) or vehicle (saline) was given 15 min later. After another 15 min period, the social interaction and locomotor activity for five min were recorded.

[2] = biological target: T1, hALDH2 (recombinant human mitochondria ALDH) (Homo sapiens, UniProt P05091); experiment: ALDH2 inhibition assay (NADH formation, formaldehyde substrate); format: biochemical
T1 sequence (P05091 18-517): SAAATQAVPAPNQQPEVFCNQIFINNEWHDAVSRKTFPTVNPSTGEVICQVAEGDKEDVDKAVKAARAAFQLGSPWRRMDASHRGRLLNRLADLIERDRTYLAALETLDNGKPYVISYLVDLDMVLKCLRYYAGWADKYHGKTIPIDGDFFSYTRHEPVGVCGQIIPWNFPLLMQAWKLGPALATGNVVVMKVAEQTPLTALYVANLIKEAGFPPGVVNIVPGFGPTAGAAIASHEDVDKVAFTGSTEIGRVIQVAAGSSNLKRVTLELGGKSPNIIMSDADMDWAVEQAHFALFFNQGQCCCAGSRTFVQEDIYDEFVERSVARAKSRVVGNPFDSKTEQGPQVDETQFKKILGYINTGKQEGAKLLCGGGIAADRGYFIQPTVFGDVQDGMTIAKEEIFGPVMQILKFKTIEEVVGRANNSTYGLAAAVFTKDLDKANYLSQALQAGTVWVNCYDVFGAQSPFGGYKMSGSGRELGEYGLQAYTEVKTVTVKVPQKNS
In short: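 1 nM enzyme in 50 mM sodium phosphate pH 7.4 with 1.2 mM NAD+ and compound at 0.03–1000 nM; reaction started with 0.15 mM formaldehyde at 25 °C. NADH formation followed by fluorescence (ex 340/em 460 nm). IC50 from sigmoidal fits with floating Hill slope; apparent Ki from Morrison equation if tight binding.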

hMAO-B = biological target: T2, hMAO-B (Homo sapiens, UniProt P27338); experiment: MAO-B inhibition assay (Amplex Red, horseradish peroxidase-coupled); format: biochemical; conditions: at 10 μM; read-out: hMAO-B inhibition (IC50 hMAO-B)
T2 construct: purchased Sigma M7441
T2 sequence (P27338 1-520): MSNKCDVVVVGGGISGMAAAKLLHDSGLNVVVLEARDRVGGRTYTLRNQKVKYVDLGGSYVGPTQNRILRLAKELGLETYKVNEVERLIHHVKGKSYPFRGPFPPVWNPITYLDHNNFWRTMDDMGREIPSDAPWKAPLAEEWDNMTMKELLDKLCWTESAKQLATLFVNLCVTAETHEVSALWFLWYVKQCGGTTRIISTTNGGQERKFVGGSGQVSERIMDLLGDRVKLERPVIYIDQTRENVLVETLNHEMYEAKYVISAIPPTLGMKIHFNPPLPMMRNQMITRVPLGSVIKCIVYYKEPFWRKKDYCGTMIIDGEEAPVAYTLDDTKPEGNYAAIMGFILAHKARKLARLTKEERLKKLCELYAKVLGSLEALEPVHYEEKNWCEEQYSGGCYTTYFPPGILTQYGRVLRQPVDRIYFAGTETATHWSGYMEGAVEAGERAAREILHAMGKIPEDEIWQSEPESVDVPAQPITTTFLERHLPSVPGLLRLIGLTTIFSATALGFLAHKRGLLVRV
Experimental: MAO-A (Sigma M7316) and MAO-B (Sigma M7441) inhibition assays were conducted in 96-well micro-plates according to the method described by Zhou et al. [Analytical Biochemistry 253, 169-174, 1997]. Both assays were performed in potassium phosphate buffer (0.1 M, pH 7.5) containing 0.5 mM tyramine (Sigma T2879), 0.12 mM N-acetyl-3,7-dihydrophenoxazine (Amplex Red, Invitrogen A12222), 1.2 unit/ml horseradish peroxidase (Sigma P2088), 0.6 unit/ml MAO-A or 2.5 unit/ml MAO-B, and various concentrations of test compounds (0.1 nM to 10 uM). Reactions were initiated by the addition of a pre-mixed solution of tyramine, horseradish peroxidase and Amplex Red, and were allowed to proceed at 37° C. for 30 min. Enzyme activities were determined by measuring absorbance at 570 nm (SpectralMax Plate reader), absorbance of oxidized Amplex Red generated by this horseradish peroxidase-coupled reaction. Nonspecifically formed products were determined in the presence of 2 and 10 µM clorgyline and deprenyl for MAO-A and MAO-B, respectively. IC50 values were determined by fitting concentration-inhibition data to sigmoidal dose-response curves with two-floating parameters: IC50 and Hill coefficient.

[3] = test system: Sprague-Dawley rats treated with mCPP; experiment: Social interaction test, mCPP-induced anxiety; format: in vivo, rat
From the text: as §1, §2

SMILES | IC50 [2] [nM] | inhibition at 10 µM (hMAO-B) [%] | other results
CCc1c(C(=O)OC)ncc2[nH]c3cc(OC)c(OC)cc3c12 [DMCM, methyl 6,7-demethoxy-4-ethyl-β-carboline-3-carboxylate, reference compound] | – | – | social interaction (effect of anxiogenic agent) ([1]; 15 min before test): substantially reduced social interaction; locomotor activity (effect of anxiogenic agent) ([1]; compared to controls): reduced locomotor activity
O=c1c(-c2ccc(O)cc2)coc2cc(OCc3nnc(-c4cc(F)cc(C(F)(F)F)c4)o3)ccc12 [PT-74, 7-({5-[3-fluoro-5-(trifluoromethyl)phenyl](1,3,4-oxadiazol-2-yl)}methoxy)-3-(4-hydroxyphenyl)chromen-4-one] | 5 | 22 | –
O=c1c(-c2ccc(O)cc2)coc2cc(OCc3nnc(-c4ccc(F)cc4)o3)ccc12 [PT-81, 7-{[5-(4-fluorophenyl)(1,3,4-oxadiazol-2-yl)]methoxy}-3-(4-hydroxyphenyl)chromen-4-one] | 0.4 | 12 | –
O=c1c(-c2ccc(O)cc2)coc2cc(OCc3ccncc3)ccc12 [PT-82, 3-(4-hydroxyphenyl)-7-(4-pyridylmethoxy)chromen-4-one] | 5 | 15 | –
O=C(COc1ccc2c(=O)c(-c3ccc(O)cc3)coc2c1)Nc1ccccc1C(F)(F)F [PT-84, 2-[3-(4-hydroxyphenyl)-4-oxochromen-7-yloxy]-N-[2-(trifluoromethyl)phenyl]-acetamide] | 15 | 20 | –
O=c1c(-c2ccc(O)cc2)coc2cc(OCCc3ccccc3)ccc12 [PT-87, 3-(4-hydroxyphenyl)-7-(2-phenylethoxy)chromen-4-one] | – | 21 | inhibition at 1 µM ([2]; at 1 μM, read-out: hALDH2 inhibition (IC50 hALDH2 column)): 0.04%
O=c1c(-c2ccc(O)cc2)coc2cc(OCCOc3ccc(Cl)cc3)ccc12 [PT-89, 7-[2-(4-chlorophenoxy)ethoxy]-3-(4-hydroxyphenyl)chromen-4-one] | 22 | 32 | –
C[C@@H](NC(=O)COc1ccc2c(=O)c(-c3ccc(O)cc3)coc2c1)c1ccc(F)cc1 [PT-90, N-[(1R)-1-(4-fluorophenyl)ethyl]-2-[3-(4-hydroxyphenyl)-4-oxochromen-7-yloxy]acetamide] | 6 | 12 | –
O=c1c(-c2ccc(O)cc2)coc2cc(OCc3ccccn3)ccc12 [PT-91, 3-(4-hydroxyphenyl)-7-(2-pyridylmethoxy)chromen-4-one] | 7 | 11 | –
COC(=O)c1coc(COc2ccc3c(=O)c(-c4ccc(O)cc4)coc3c2)n1 [PT-101, methyl 2-{[3-(4-hydroxyphenyl)-4-oxochromen-7-yloxy]methyl}-1,3-oxazole-4-carboxylate] | 5 | 34 | –
C[C@H](NC(=O)COc1ccc2c(=O)c(-c3ccc(O)cc3)coc2c1)c1ccc(F)cc1 [PT-103, N-[(1S)-1-(4-fluorophenyl)ethyl]-2-[3-(4-hydroxyphenyl)-4-oxochromen-7-yloxy]acetamide] | 8 | 29 | –
O=c1c(-c2ccc(O)cc2)coc2cc(OC[C@H](O)Cc3ccccc3)ccc12 [PT-109, 7-((2R)-2-hydroxy-3-phenylpropoxy)-3-(4-hydroxyphenyl)chromen-4-one] | 14 | 26 | –
CS(=O)(=O)Nc1ccc(-c2c(O)oc3cc(OCc4cccc(C(=O)O)c4)ccc3c2=O)cc1 [PT-111, 3-[(2-hydroxy-3-{4-[(methylsulfonyl)amino]phenyl}-4-oxochromen-7-yloxy)methyl]-benzoic acid] | 3 | 30 | –
Clc1cccc(N2CCNCC2)c1 [mCPP, m-chlorophenylpiperazine] | – | – | social interaction (effect of anxiogenic agent) ([3]; 0.5 mg/kg mCPP, 15 min before test): low social interaction score; locomotor activity (effect of anxiogenic agent) ([3]; 0.5 mg/kg mCPP, compared to controls): reduced locomotor activity; locomotor activity compared to vehicle-treated rats receiving mCPP ([3]; rats receiving mCPP 0.5 mg/kg): no effect
